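All cell lines were grown in 96-well plates and treated with compound for 48 hours. At the GI50, growth is halved.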 Activity calls are given as the source filed them. Rule as the data show it: active = GI50 up to about 1.1 µM and inactive = higher.
Experiments:
Assay in all cases: NCI tumour cell line growth inhibition, 48 h
SK-MEL-28 = tested on: SK-MEL-28
SF-539 = tested on: SF-539
OVCAR-8 = tested on: OVCAR-8
NCI-H226 = tested on: NCI-H226
Hs-578T = tested on: Hs-578T
HT-29 = tested on: HT-29
A498 = tested on: A498
UACC-257 = tested on: UACC-257
UO-31 = tested on: UO-31
Malme-3M = tested on: Malme-3M
DU-145 = tested on: DU-145
HL-60 = tested on: HL-60
LOX IMVI = tested on: LOX IMVI
BT-549 = tested on: BT-549
U-251 = tested on: U-251
NCI-H460 = tested on: NCI-H460
A549 = tested on: A549
HCT-15 = tested on: HCT-15
OVCAR-5 = tested on: OVCAR-5
PC-3 = tested on: PC-3

Structure (SMILES)	GI50 (SK-MEL-28)	GI50 (SF-539)	GI50 (OVCAR-8)	GI50 (NCI-H226)	GI50 (Hs-578T)	GI50 (HT-29)	GI50 (A498)	GI50 (UACC-257)	GI50 (UO-31)	GI50 (Malme-3M)	GI50 (DU-145)	GI50 (HL-60)	GI50 (LOX IMVI)	GI50 (BT-549)	GI50 (U-251)	GI50 (NCI-H460)	GI50 (A549)	GI50 (HCT-15)	GI50 (OVCAR-5)	GI50 (PC-3)
O=C1Nc2ccccc2S/C1=C\c1ccccc1C(F)(F)F	> 100 µM (inactive)	72.8 µM (inactive)	72.6 µM (inactive)	> 100 µM (inactive)	51.9 µM (inactive)	> 100 µM (inactive)	> 10 µM (inactive)	> 100 µM (inactive)	> 100 µM (inactive)	> 100 µM (inactive)	> 100 µM (inactive)	4.2 µM (inactive)	> 100 µM (inactive)	59.7 µM (inactive)	71.9 µM (inactive)	94.6 µM (inactive)	> 100 µM (inactive)	> 100 µM	> 100 µM (inactive)	> 100 µM (inactive)
O=P1(c2ccccc2)C(c2ccccc2)=CC=C1c1ccccc1	58.1 µM (inactive)	59 µM (inactive)	14.6 µM (inactive)	26.4 µM (inactive)	37.8 µM (inactive)	10.3 µM (inactive)	16.8 µM (inactive)	22.5 µM (inactive)	13.7 µM (inactive)	27.3 µM (inactive)	41.8 µM (inactive)	2.28 µM (inactive)	10.4 µM (inactive)	18.8 µM (inactive)	13.3 µM (inactive)	11.6 µM (inactive)	22.6 µM (inactive)	16 µM	20.9 µM (inactive)	15.3 µM (inactive)
O=c1[nH]nc(-c2ccccc2)n1/N=C/c1ccc([N+](=O)[O-])cc1	> 100 µM (inactive)	17.1 µM (inactive)	10.2 µM (inactive)	27.6 µM (inactive)	17 µM (inactive)	> 100 µM (inactive)	14.6 µM (inactive)	> 100 µM (inactive)	11.2 µM (inactive)	> 100 µM (inactive)	56.1 µM (inactive)	> 100 µM (inactive)	31.1 µM (inactive)	> 100 µM (inactive)	4.74 µM (inactive)	22.9 µM (inactive)	23.9 µM (inactive)	> 100 µM	> 100 µM (inactive)	> 100 µM (inactive)
O=C(c1cc2ccccc2[nH]1)N1C2CCC1CN(CCOC(c1ccc(F)cc1)c1ccc(F)cc1)CC2 (stereo not given)	> 100 µM (inactive)	19.1 µM (inactive)	> 100 µM (inactive)	6.9 µM (inactive)	> 100 µM (inactive)	23.8 µM (inactive)	> 100 µM (inactive)	12.5 µM (inactive)	3.22 µM (inactive)	> 100 µM (inactive)	> 100 µM (inactive)	6.85 µM (inactive)	9.48 µM (inactive)	> 100 µM (inactive)	3.99 µM (inactive)	4.48 µM (inactive)	34.9 µM (inactive)	3.24 µM	> 100 µM (inactive)	2.79 µM (inactive)
O=C(O)CNCc1c2ccccc2nc2ccccc12	59.6 µM (inactive)	29.9 µM (inactive)	32.9 µM (inactive)	52.1 µM (inactive)	20.4 µM (inactive)	27.3 µM (inactive)	66.1 µM (inactive)	34.1 µM (inactive)	25.2 µM (inactive)	> 74.5 µM (inactive)	> 100 µM (inactive)	7.64 µM (inactive)	28.3 µM (inactive)	33.4 µM (inactive)	60 µM (inactive)	39.2 µM (inactive)	43.4 µM (inactive)	34.4 µM	> 85.9 µM (inactive)	27.2 µM (inactive)
CC(=O)C(C)CCOC1(C)OCCC1C (stereo not given)	> 100 µM (inactive)	> 100 µM (inactive)	> 100 µM (inactive)	> 100 µM (inactive)	> 100 µM (inactive)	> 100 µM (inactive)	> 100 µM (inactive)	> 100 µM (inactive)	> 100 µM (inactive)	> 100 µM (inactive)	> 100 µM (inactive)	> 100 µM (inactive)	> 100 µM (inactive)	> 100 µM (inactive)	> 100 µM (inactive)	> 100 µM (inactive)	> 100 µM (inactive)	> 100 µM	> 100 µM (inactive)	> 100 µM (inactive)
Cn1c2ccccc2c2[nH]c3ccccc3c(=O)c21	> 100 µM (inactive)	> 100 µM (inactive)	> 100 µM (inactive)	> 100 µM (inactive)	> 100 µM (inactive)	> 100 µM (inactive)	> 100 µM (inactive)	> 100 µM (inactive)	> 100 µM (inactive)	> 100 µM (inactive)	> 100 µM (inactive)	> 100 µM (inactive)	31.8 µM (inactive)	> 100 µM (inactive)	> 100 µM (inactive)	> 100 µM (inactive)	> 100 µM (inactive)	> 100 µM	> 100 µM (inactive)	> 100 µM (inactive)
O=C1C2=Nc3ccccc3C(O)(C(=O)O)N2c2ccccc21 (stereo not given)	43.9 µM (inactive)	26.4 µM (inactive)	17.5 µM (inactive)	> 100 µM (inactive)	27.7 µM (inactive)	21.2 µM (inactive)	29.5 µM (inactive)	10.7 µM (inactive)	12.5 µM (inactive)	15 µM (inactive)	16.3 µM (inactive)	10.7 µM (inactive)	20.1 µM (inactive)	> 10 µM (inactive)	19.9 µM (inactive)	12.2 µM (inactive)	7.66 µM (inactive)	15.2 µM	34.8 µM (inactive)	6.61 µM (inactive)
C=CCOc1ccc2c(C)cc(=O)oc2c1C	> 100 µM (inactive)	41.2 µM (inactive)	56.8 µM (inactive)	> 100 µM (inactive)	26.9 µM (inactive)	59.2 µM (inactive)	31.5 µM (inactive)	> 100 µM (inactive)	29.5 µM (inactive)	> 100 µM (inactive)	> 100 µM (inactive)	32.4 µM (inactive)	43.8 µM (inactive)	32 µM (inactive)	54.2 µM (inactive)	53.8 µM (inactive)	50.7 µM (inactive)	42.8 µM	> 100 µM (inactive)	35.3 µM (inactive)
CC(=O)CC1(O)C(=O)c2c(Br)sc(Br)c2C1=O	20.7 µM (inactive)	23.6 µM (inactive)	23 µM (inactive)	65.6 µM (inactive)	31.3 µM (inactive)	21.7 µM (inactive)	> 100 µM (inactive)	19.6 µM (inactive)	32.2 µM (inactive)	18.1 µM (inactive)	42.8 µM (inactive)	20.6 µM (inactive)	17.7 µM (inactive)	19 µM (inactive)	24 µM (inactive)	45.1 µM (inactive)	58.1 µM (inactive)	20.4 µM	17.6 µM (inactive)	20.6 µM (inactive)
COc1ccc(-c2c(CN3CCOCC3)sc3nc4ccccc4n23)cc1	18.6 µM (inactive)	16.8 µM (inactive)	26.5 µM (inactive)	42.1 µM (inactive)	21.6 µM (inactive)	8.41 µM (inactive)	23.7 µM (inactive)	> 72.1 µM (inactive)	30.3 µM (inactive)	3.9 µM (inactive)	28.2 µM (inactive)	9.42 µM (inactive)	18.5 µM (inactive)	> 49.4 µM (inactive)	16.1 µM (inactive)	8.41 µM (inactive)	22.2 µM (inactive)	5.58 µM	32.3 µM (inactive)	9.33 µM (inactive)
